Laboratory results as given in PMC12582016, “Cupin‐Type Dimethylsulfoniopropionate Lyase from Pelagibacter ubique (DddK Pu ) Catalyzes Aza‐Michael Addition of Primary and Secondary Amines to Acrylic Acid” (Angewandte Chemie (International Ed. in English), 2025).

How the values were obtained:
[1] = target: T1, DddK Pu (dimethylsulfoniopropionate (DMSP) lyase from Pelagibacter ubique HTCC1062) (Candidatus Pelagibacter communis, UniProt Q4FNM4); assay: HPLC end-point assay of acrylate formation; format: biochemical; conditions: 50 mM triethanolamine pH 8.0, 25 °C; enzyme as isolated (mainly Zn, Fe, Ni)
T1 construct: gene SAR11_0394; His-tagged wild type, tag kept, recombinant in E. coli, purified; metals as isolated mainly Zn, Fe, Ni
T1 sequence (Q4FNM4 1-130): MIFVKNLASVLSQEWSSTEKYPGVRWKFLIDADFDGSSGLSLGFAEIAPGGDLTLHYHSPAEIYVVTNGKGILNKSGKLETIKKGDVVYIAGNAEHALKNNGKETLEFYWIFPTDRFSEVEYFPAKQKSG

[2] = target: T1, DddK Pu (dimethylsulfoniopropionate (DMSP) lyase from Pelagibacter ubique HTCC1062); assay: end-point assay of acrylate consumption (aza-Michael addition); format: biochemical; conditions: co-substrate sodium acrylate 100 mM; pyrrolidine 100 mM; 50 mM triethanolamine pH 8.0, 25 °C; promiscuous activity

Row | SMILES | HPLC end-point assay of acrylate formation [1] | end-point assay of acrylate consumption (aza-Michael addition) [2]
1 | C[S+](C)CCC(=O)[O-] [compound 1, DMSP] | The specific activity of DddK Pu was determined by the endpoint method | 
2 | C1CCNC1 [6c, pyrrolidine] |  | Pyrrolidine (6c) was by far the most active secondary amine
